Consider 20 molecules from patent US8633231B2, “Substituted imidazolones, compositions containing such compounds and methods of use” (Merck Sharp & Dohme Corp., priority 2010, dated 2014).

Chain of Recombinant human glucagon receptor-expressing CHO cells (P47871 26-477): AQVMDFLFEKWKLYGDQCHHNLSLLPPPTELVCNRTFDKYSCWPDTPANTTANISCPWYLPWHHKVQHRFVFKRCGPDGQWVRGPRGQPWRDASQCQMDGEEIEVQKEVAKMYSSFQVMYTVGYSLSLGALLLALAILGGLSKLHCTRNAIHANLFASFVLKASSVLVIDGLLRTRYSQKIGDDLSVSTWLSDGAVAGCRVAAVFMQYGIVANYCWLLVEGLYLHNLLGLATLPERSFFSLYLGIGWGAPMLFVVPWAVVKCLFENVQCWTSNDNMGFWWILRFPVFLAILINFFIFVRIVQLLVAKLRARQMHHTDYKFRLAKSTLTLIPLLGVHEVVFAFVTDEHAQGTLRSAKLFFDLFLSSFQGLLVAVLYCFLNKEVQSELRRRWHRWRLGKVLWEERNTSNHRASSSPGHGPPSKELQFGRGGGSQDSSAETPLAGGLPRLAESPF

This test concerns the target Recombinant human glucagon receptor-expressing CHO cells (Homo sapiens (Human), UniProt P47871). The test is described as follows: Inhibition of Glucagon-Stimulated Intracellular cAMP Assay. The conditions noted are these: stimulation with 300 pM glucagon; LANCE cAMP Kit. The format is cell-based. The protocol:
Inhibition of Glucagon-Stimulated Intracellular cAMP Assay
Recombinant human glucagon receptor-expressing CHO cells were harvested using a non-enzymatic cell dissociation solution (GIBCO 2672), pelleted and resuspended in stimulation buffer (1×HBSS, 5 mM Hepes, 0.1% BSA, pH7.4 in the presence of proteinase inhibitor and phosphodiesterase inhibitors). The adenylate cyclase assay was constructed following the LANCE cAMP Kit (Perkin Elmer, AD0264) instructions. Briefly, cells were preincubated with anti-cAMP antibody and 12 points series diluted compound in stimulation buffer with a final concentration of 3% DMSO for 30 minutes prior to stimulation with 300 pM glucagon for 45 minutes. The reaction was stopped by incubating with the supplied detection buffer containing Europium chelate of the Eu-SA/Biotin-cAMP tracer for 20 hours. The assay was done as triplicates in a 384 well plate. Fluorescence at 665 nm was measured using PheraStar instruments. Basal activity (100% inhibition) was determined using the DMSO control and 0% inhibition was defined as cAMP stimulation produced by 300 pM glucagon. Standard cAMP concentrations were assayed concurrently for conversion of fluorescence signal to cAMP level. Data was analyzed using the software program Prism from GraphPad. IC50 values were calculated using non-linear regression analysis assuming single site competition.
Background: In TR-FRET formats the signal depends on donor and acceptor labels being close together.
For `CC(C)(C)CC[C@H](c1ccc(C(=O)NCCC(=O)O)cc1)N1C(=O)C(c2cc(Cl)cc(Cl)c2)=NC1(C)C` [Example 1], the IC50 was determined as 0.8 µM. The result for `CC(C)(C)CC[C@H](c1ccc(C(=O)NCc2nn[nH]n2)cc1)N1C(=O)C(c2cc(Cl)cc(Cl)c2)=NC1(C)C` [Example 2] reads 3.7 µM; that for `CC(C)(C)CC[C@H](c1ccc(C(=O)Nc2nn[nH]n2)cc1)N1C(=O)C(c2cc(Cl)cc(Cl)c2)=NC1(C)C` [Example 3], 6.2 µM; that for `CC(C)CC1(C)N=C(c2cc(Cl)cc(Cl)c2)C(=O)N1[C@H](CCC(C)(C)C)c1ccc(C(=O)NCc2nn[nH]n2)cc1` (some centres unmarked) [Example 4], 1.1 µM. As to `CC(C)CC1(C)N=C(c2cc(Cl)cc(Cl)c2)C(=O)N1[C@H](CCC(C)(C)C)c1ccc(C(=O)Nc2nn[nH]n2)cc1` (some centres unmarked) [Example 5], the IC50 is 5.1 µM. On to `CC(C)CC1(C)N=C(c2cccc(F)c2)C(=O)N1[C@H](CCC(C)(C)C)c1ccc(C(=O)NCc2nn[nH]n2)cc1` (some centres unmarked) [Example 6], for which the IC50 is 3.4 µM. With `CC(C)CC1(C)N=C(c2cc(Cl)cc(Cl)c2)C(=O)N1[C@H](CCC(C)(C)C)c1ccc(C(=O)NCCC(=O)O)cc1` (some centres unmarked) [Example 7], the IC50 was found to be 0.6 µM. The result for `CC(C)(C)CC[C@H](c1ccc(C(=O)NCCC(=O)O)cc1)N1C(=O)C(c2cccc(F)c2)=NC1(C)C` [Example 8] reads 4.9 µM; that for `CC(C)(C)CC[C@H](c1ccc(C(=O)Nc2nn[nH]n2)cc1)N1C(=O)C(c2cccc(F)c2)=NC1(C)C` [Example 9], 5.9 µM.

For the molecule `CC(C)(C)CC[C@H](c1ccc(C(=O)NCc2nn[nH]n2)cc1)N1C(=O)C(c2cccc(F)c2)=NC1(C)C` [Example 10], the IC50 was found to be 8.4 µM. With `CC1(C2CCCCC2)N=C(c2cc(Cl)cc(Cl)c2)C(=O)N1CCc1ccc(C(=O)NCCC(=O)O)cc1` (centres unmarked) [Example 11], the IC50 was determined as 1.7 µM. With `CC1(C)N=C(c2cc(Cl)cc(Cl)c2)C(=O)N1CCc1ccc(C(=O)NCCC(=O)O)cc1` [Example 12], the half-inhibitory concentration (IC50) amounted to 1.7 µM.

As to `CC(C)CC1(C)N=C(c2cc(Cl)cc(Cl)c2)C(=O)N1CCc1ccc(C(=O)NCCC(=O)O)cc1` (centres unmarked) [Example 13], the IC50 was 4.2 µM. On to `CC1(C2CCCCC2)N=C(c2ccc(OC(F)(F)F)cc2)C(=O)N1CCc1ccc(C(=O)NCCC(=O)O)cc1` (centres unmarked) [Example 14], for which the IC50 was determined as 5.1 µM. For the molecule `CC1(C2CCCCC2)NC(c2cccc(C(F)(F)F)c2)C(=O)N1CCc1ccc(C(=O)NCCC(=O)O)cc1` (centres unmarked) [Example 15], the IC50 was found to be 3.5 µM. In the case of `CC1(C)N=C(c2ccc(OC(F)(F)F)cc2)C(=O)N1CCc1ccc(C(=O)NCCC(=O)O)cc1` [Example 16], the IC50 came to 8.3 µM.

With `CC1(C)N=C(c2cc(Cl)cc(Cl)c2)C(=O)N1[C@@H](c1ccc(C(=O)NCCC(=O)O)cc1)C1CC1` [Example 17], the IC50 was 1.7 µM. Consider `CCCC[C@H](c1ccc(C(=O)NCCC(=O)O)cc1)N1C(=O)C(c2ccc(-c3cc(Cl)cc(Cl)c3)cc2)=NC1(C)C` [Example 18], for which the IC50 came out at 1 µM. The result for `CC(C)[C@H](c1ccc(C(=O)NCCC(=O)O)cc1)N1C(=O)C(c2cc(Cl)cc(Cl)c2)=NC1(C)C` [Example 19] reads 1.3 µM; that for `CCCC[C@H](c1ccc(C(=O)NCCC(=O)O)cc1)N1C(=O)C(c2cc(Cl)cc(Cl)c2)=NC1(C)C` [Example 20], 2 µM.

For orientation: IC50 means the concentration that gives 50% inhibition.
